Biological target: T1, human LXRβ (Homo sapiens, UniProt P55055)
T1 construct: expressed in transfected cells; host or cells: HEK293 cells (ATCC CRL-1573), transient transfection with pFA-hLXRβ/GAL4 and pUAS
T1 sequence (P55055 222-460 limits assumed): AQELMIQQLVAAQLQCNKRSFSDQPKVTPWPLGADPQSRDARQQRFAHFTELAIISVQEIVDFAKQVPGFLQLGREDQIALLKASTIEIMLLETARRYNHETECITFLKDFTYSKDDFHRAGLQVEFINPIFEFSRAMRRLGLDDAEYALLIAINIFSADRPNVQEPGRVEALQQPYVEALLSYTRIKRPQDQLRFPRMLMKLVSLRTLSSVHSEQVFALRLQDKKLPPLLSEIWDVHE
Assay: Assay for Transcriptional Activity of LXRβ (GAL4-hLXRβ LBD luciferase reporter, transient transfection)
Assay type: cell-based
Conditions: HEK293 cells transfected with pFA-hLXRβ/GAL4 and pUAS, 24 hours; for Emax: fold value in comparison with the control (DMSO-treated group); for EC50: increase of transcriptional activity of LXRβ, average of three independent tests
Source text: The ligand-binding domain (LBD) cDNA of human LXRβ was inserted into an expression vector (pFA, Stratagene, USA) site adjacent to the yeast GAL4 transcription factor DNA binding domain to prepare an expression construct (pFA-hLXRβ/GAL4) (Willey et al., Genes & Development 9 1033-1045 (1995). The GAL4-responsive luciferase reporter plasmid, i.e., pUAS (Stratagene, USA), contained five copies of the GAL4 response element placed adjacent to the promoter and the luciferase reporter gene. The pFA-hLXRβ/GAL4 and pUAS were introduced into mammalian cells through transient transfection, followed by measuring the transcriptional activity of LXRβ.
HEK293 cells (human kidney cells, sATCC, CRL-1573) were incubated at a T-75 flask containing a DMEM supplemented with 10% fetal bovine serum (FBS) in a 37° C., until they reach about 70˜80% confluency. The culture media containing the cells was added to each well of a 96-well plate in a density of 5×10^4 cells per well. The pFA-hLXRβ/GAL4 and pUAS was transfected to the cells using a cationic-lipid transfection reagent (Lipofectamine™, Invitrogen), through culturing at 37° C. for 3 hours for transient transfection according to the manufacturer's instruction. The test compounds were dissolved in dimethyl sulfoxide (DMSO) in the concentrations of 50, 30, 10, 3, 1, 0.3, 0.1, 0.03, and 0.01 μM and then cells were treated with the prepared compound-containing solution (100 μl). The cells were incubated at 37° C. for 24 hours. After removal of the medium from each well, the lysis buffer (25 mM Tricine pH7.8, 2 mM DTT, 2 mM EGTA, 10% glycerol, 1% Triton X-100) was added with the amount of 20 μl per each well, and the plate was stirred at room temperature for 15 minutes. The luciferase reagent (prepared by adding 10 ml of the luciferase buffer (Promega) to 1 vial of the luciferase substrate (Promega)) was added to each well with the amount of 100 μl per well, followed by assaying with a luminometer according to the manufacturer's instruction.
The dose-response curve for calculating the EC50 values of the test compounds on the increase of transcriptional activity of LXRβ was prepared using the known LXR agonist (i.e., N-(2,2,2-trifluoro-ethyl)-N-[4-(2,2,2-trifluoro-1-hydroxy-1-trifluoromethyl-ethyl)-phenyl]-benzenesulfonamide) as a positive control and the vehicle (DMSO) as a negative control. The dose-response curve was produced from the 9-point curve having different concentrations at a 1/2 log unit. The EC50 value of a test compound, which is defined as a concentration for initiating the reaction corresponding to the half value between the Top value (i.e., the maximum value) and the Bottom value (baseline), was calculated according to the following equation. Y=Bottom+(Top-Bottom)/(1+10^((log EC50-X)*Hill Slope)).
In the above equation, Y is the observed value; X is the log concentration; Hill Slope is the slope of the curve; and Top and Bottom are the maximum value of test compound and the baseline value, respectively.
The following tables 1 and 2 show the EC50 values of the test compounds measured as in the above. In the tables 1 and 2, each EC50 value represents an average value obtained from three independent tests.

| Compound | Emax [fold] | EC50 [nM] |
| --- | --- | --- |
| 1-(2,4-difluoro-phenyl)-5-(4-fluoro-3′-methanesulfonyl-biphenyl-3-yl)-3-pentafluoroethyl-4,5-dihydroxy-1H-pyrazole [Example 141] | 127 | 18 |
| CS(=O)(=O)c1cccc(-c2ccc(C3CC(C(F)(F)C(F)(F)F)=NN3c3ccccc3Cl)cc2)c1 (centres unmarked) [Example 5, 1-(2-chloro-phenyl)-5-[3′-(methylsulfonyl)-biphenyl-4-yl]-3-pentafluoroethyl-4,5-dihydro-1H-pyrazole] | 48 | 330 |
| CSc1cccc(-c2ccc(C3CC(C(F)(F)C(F)(F)F)=NN3Cc3ccccc3Cl)cc2)c1 (centres unmarked) [Example 15, 1-(2-chloro-benzyl)-5-(3′-methylsulfanyl-biphenyl-4-yl)-3-pentafluoroethyl-4,5-dihydro-1H-pyrazole] | 23 | 14800 |
| CS(=O)(=O)c1cccc(-c2ccc(C3CC(C(F)(F)C(F)(F)F)=NN3c3ccc(F)cc3F)cc2)c1 (centres unmarked) [Example 18, 1-(2,4-difluoro-phenyl)-5-(3′-methanesulfonyl-biphenyl-4-yl)-3-pentafluoroethyl-4,5-dihydro-1H-pyrazole] | 103 | 692 |
| CSc1ccc(-c2cccc(C3CC(C(F)(F)C(F)(F)F)=NN3c3ccc(F)cc3F)c2)cc1 (centres unmarked) [Example 30, 1-(2,4-difluoro-phenyl)-5-(4′-methylsulfanyl-biphenyl-3-yl)-3-pentafluoroethyl-4,5-dihydro-1H-pyrazole] | 66 | 8570 |
| CSc1ccc(-c2cccc(C3CC(C(F)(F)C(F)(F)F)=NN3c3ccc(Cl)cc3F)c2)cc1 (centres unmarked) [Example 31, 1-(4-chloro-2-fluoro-phenyl)-5-(4′-methylsulfanyl-biphenyl-3-yl)-3-pentafluoroethyl-4,5-dihydro-1H-pyrazole] | 28 | 5660 |
| CS(=O)(=O)c1ccc(-c2cccc(C3CC(C(F)(F)C(F)(F)F)=NN3c3ccc(Cl)cc3Cl)c2)cc1 (centres unmarked) [Example 41, 1-(2,4-dichloro-phenyl)-5-(4′-methanesulfonyl-biphenyl-3-yl)-3-pentafluoroethyl-4,5-dihydro-1H-pyrazole] | 89 | 1660 |
| C[S+]([O-])c1ccc(-c2cccc(C3CC(C(F)(F)C(F)(F)F)=NN3c3ccc(Cl)cc3Cl)c2)cc1 (centres unmarked) [Example 42, 1-(2,4-dichloro-phenyl)-5-(4′-methanesulfinyl-biphenyl-3-yl)-3-pentafluoroethyl-4,5-dihydro-1H-pyrazole] | 103 | 593 |
| CS(=O)(=O)c1ccc(-c2cccc(C3CC(C(F)(F)C(F)(F)F)=NN3c3ccc(F)cc3F)c2)cc1 (centres unmarked) [Example 51, 1-(2,4-difluoro-phenyl)-5-(4′-methanesulfonyl-biphenyl-3-yl)-3-pentafluoroethyl-4,5-dihydro-1H-pyrazole] | 61 | 2480 |
| C[S+]([O-])c1ccc(-c2cccc(C3CC(C(F)(F)C(F)(F)F)=NN3c3ccc(F)cc3F)c2)cc1 (centres unmarked) [Example 52, 1-(2,4-difluoro-phenyl)-5-(4′-methanesulfinyl-biphenyl-3-yl)-3-pentafluoroethyl-4,5-dihydro-1H-pyrazole] | 56 | 546 |
| CS(=O)(=O)c1ccc(-c2cccc(C3CC(C(F)(F)C(F)(F)F)=NN3c3ccc(Cl)cc3F)c2)cc1 (centres unmarked) [Example 53, 1-(4-chloro-2-fluoro-phenyl)-5-(4′-methanesulfonyl-biphenyl-3-yl)-3-pentafluoroethyl-4,5-dihydro-1H-pyrazole] | 61 | 746 |
| CS(=O)(=O)c1ccc(-c2cccc(C3CC(C(F)(F)C(F)(F)F)=NN3Cc3ccccc3Cl)c2)cc1 (centres unmarked) [Example 54, 1-(2-chloro-benzyl)-5-(4′-methanesulfonyl-biphenyl-3-yl)-3-pentafluoroethyl-4,5-dihydro-1H-pyrazole] | 17 | 6430 |
| Fc1ccc(N2N=C(C(F)(F)C(F)(F)F)CC2c2cccc(-c3ccc(F)nc3)c2)c(F)c1 (centres unmarked) [Example 55, 1-(2,4-difluoro-phenyl)-5-[3-(6-fluoro-pyridin-3-yl)-phenyl]-3-pentafluoroethyl-4,5-dihydro-1H-pyrazole] | 73 | 4900 |
| COc1ccc(-c2cccc(C3CC(C(F)(F)C(F)(F)F)=NN3c3ccc(F)cc3F)c2)cn1 (centres unmarked) [Example 56, 1-(2,4-difluoro-phenyl)-5-[3-(6-methoxy-pyridin-3-yl)-phenyl]-3-pentafluoroethyl-4,5-dihydro-1H-pyrazole] | 78 | 2220 |
| Fc1ccc(N2N=C(C(F)(F)C(F)(F)F)CC2c2cccc(-c3cncnc3)c2)c(F)c1 (centres unmarked) [Example 57, 1-(2,4-difluoro-phenyl)-3-pentafluoroethyl-5-[3-(5-pyrimidyl)-phenyl]-4,5-dihydro-1H-pyrazole] | 39 | 4770 |
| CC(C)(C)OC(=O)N1CC=C(c2cccc(C3CC(C(F)(F)C(F)(F)F)=NN3c3ccc(F)cc3F)c2)CC1 (centres unmarked) [Example 60, 5-[3-(1-BOC-1,2,3,6-tetrahydropyridin-4-yl)-phenyl]-1-(2,4-difluoro-phenyl)-3-pentafluoroethyl-4,5-dihydro-1H-pyrazole] | 11 | 20100 |
| CS(=O)(=O)N1CC=C(c2cccc(C3CC(C(F)(F)C(F)(F)F)=NN3c3ccc(F)cc3F)c2)CC1 (centres unmarked) [Example 62, 1-(2,4-difluoro-phenyl)-5-[3-(1-methanesulfonyl-1,2,3,6-tetrahydropyridin-4-yl)-phenyl]-3-pentafluoroethyl-4,5-dihydro-1H-pyrazole] | 59 | 1160 |
| CN(C)C(=O)N1CC=C(c2cccc(C3CC(C(F)(F)C(F)(F)F)=NN3c3ccc(F)cc3F)c2)CC1 (centres unmarked) [Example 64, 1-(2,4-difluoro-phenyl)-5-[3-(1-dimethylcarbamoyl-1,2,3,6-tetrahydropyridin-4-yl)-phenyl]-3-pentafluoroethyl-4,5-dihydro-1H-pyrazole] | 48 | 1300 |
| CS(=O)(=O)c1cc(F)c(-c2cccc(C3CC(C(F)(F)C(F)(F)F)=NN3c3ccc(F)cc3F)c2)cc1F (centres unmarked) [Example 68, 5-(2′,5′-difluoro-4′-methanesulfonyl-biphenyl-3-yl)-1-(2,4-difluoro-phenyl)-3-pentafluoroethyl-4,5-dihydro-1H-pyrazole] | 75 | 192 |
| CS(=O)(=O)c1ccc(-c2cccc(C3CC(C(F)(F)C(F)(F)F)=NN3c3ccc(F)cc3F)c2)cc1C(F)(F)F (centres unmarked) [Example 69, 1-(2,4-difluoro-phenyl)-5-(4′-methanesulfonyl-3′-trifluoromethyl-biphenyl-3-yl)-3-pentafluoroethyl-4,5-dihydro-1H-pyrazole] | 83 | 1100 |
| CS(=O)(=O)c1ccc(-c2cccc(C3CC(C(F)(F)C(F)(F)F)=NN3c3ccc(F)cc3F)c2)cc1C#N (centres unmarked) [Example 70, 5-[3′-cyano-4′-(methanesulfonyl)-biphenyl-3-yl]-1-(2,4-difluoro-phenyl)-3-pentafluoroethyl-4,5-dihydro-1H-pyrazole] | 62 | 466 |
| Cc1ncccc1-c1cccc(C2CC(C(F)(F)C(F)(F)F)=NN2c2ccc(F)cc2F)c1 (centres unmarked) [Example 71, 1-(2,4-difluoro-phenyl)-5-(3-(2-methyl-pyridin-3-yl)-phenyl)-3-pentafluoroethyl-4,5-dihydro-1H-pyrazole] | 20 | 1230 |

Reference: patent US9376420B2 (YUHAN CORPORATION, priority 2012, dated 2016)
